These results are taken from US4008267A, “3,3'-Di(sulfonyloxy-group-containing)substituted benzidine derivatives” (AB Kabi, priority 1974, dated 1977).

The conditions of data set [1]: background, cited from earlier work.
Data set [2] in a line: Solubility of the chromogens in water / at pH 7, reduced and oxidized state. The conditions noted are these: for solubility: pH 7, water.
For data set [3] the following is noted: background, cited from earlier work. This is another data set of the same source.
A short description of data set [4]: Light stability: extinction decrease after irradiation of the oxidized chromogen. The format is physicochemical.
Description: In connection with this composition portion of the invention, laboratory tests were conducted by a standard method for evaluating different chromogens.
Data set [5] in a line: Absorption wave length of the oxidized chromogen. It counts as physicochemical.
Data set [6] in a line: Stability of isolated product in air. It counts as physicochemical. The conditions noted are these: greyish crystal powder. The procedure: d. 10 gm. of this 8,8'-bis(2-oxo-1,2,3,4,5,6-hexahydro-1-benzazocine) are refluxed for 12 hours with 200 ml. of concentrated hydrochloric acid. The solution is evaporated to a small volume, diluted with water, following which the pH is adjusted to 5 to 6 by adding concentrated sodium acetate solution.

Data set [7] is described as follows: Color stability at extinction maximum. The format is physicochemical. The conditions noted are these: 0.2 mM chromogen; 4 hours the longest period observed.
Data set [8] in a line: Color development of chromogen-reactive-indicator composition with glucose stock solutions (glucose oxidase/peroxidase). The conditions noted are these: 0.2 mM chromogen in reagent composition.
Description: Glucose was used as the control or test substance to be tested for in these tests.
______________________________________
Chromogen used 0.2 mM (i.e. millimolar),
glucose oxidase 3000 units,
Stock or test solutions were prepared containing glucose in concentrations of 25, 50, 100, 200, 300, and 400 mg. per 100 ml.
Before the final determination, this thus diluted solution is diluted further 1 part to 11 with the just described chromogen reagent solution. Thereafter the development of color is measured at 450 mm.
When this particular dilution pattern is applied to the foregoing stock or test stem solutions, finally diluted solutions with the following respective glucose contents are obtained: 2.2, 4.3, 8.6, 13.0, and 17.3 mg. per liter.
The mark [9] stands for this setting: Solubility at pH 7, oxidized (colored), pH 7, oxidized state.
Where [10] appears, read: Solubility at pH 7, reduced (uncolored), pH 7, reduced state.
[11] abbreviates: 450 nm (o-tolidine 430 nm), pH value 6.5.

In brackets after ≈: the same amount, converted by molar mass.

For orientation: solubility means the concentration that dissolves in the medium under given conditions. A high value points to much dissolved substance. For the compound `Cc1cc(-c2ccc(N)c(C)c2)ccc1N` [o-tolidine], in data set [1] (temporarily appearing color at about 630 nm), the “Sensitivity of color to pH and temperature” value is “very sensitive to variations in pH and temperature”. In addition, the solubility in data set [2] (setting [9]) stood at 7 µg/mL (≈ 33 µM); in data set [2] (setting [10]) it was 130 µg/mL (≈ 612 µM). Also, the “Light absorption wave length in oxidized state” value in data set [3] is listed as “about 450 nm”. For the same compound, in data set [3] (temporarily appearing color), the “Absorption of temporarily appearing color” value was “about 630 nm”. The “Extinction decrease % after irradiation 5 min. under 10 Watt tungsten lamp” value (from here on “Extinction decrease %”) in data set [4] (setting [11]) is 1%; in data set [4] (630 nm, pH value 4.5) it was “unstable”. For the same compound, the “Wave length range in nm” value in data set [5] (pH value 4.5) came out at 630 nm; in data set [5] (pH value 6.5) it was 430 nm.

`Nc1ccc(-c2ccc(N)c(CCCCC(=O)O)c2)cc1CCCCC(=O)O` [Example 6, Delta,delta'-(4,4'-diamino-3,3'-biphenyl)divaleric acid]: the “Discoloration in the air” value in data set [6] is “readily discolors in the air”.

As to `Nc1ccc(-c2ccc(N)c(OCCCS(=O)(=O)O)c2)cc1OCCCS(=O)(=O)O` [Example 3(b), Gamma,gamma'-(4,4'-diamino-3,3'-biphenyldioxy)dipropane sulfonic acid], in data set [2], the “Solubility in water (in words)” value is reported as “quite good”. Further, the results for the solubility in data set [2] (setting [9]) and in data set [2] (setting [10]) were 120 µg/mL (≈ 261 µM) and 12000 µg/mL (≈ 26100 µM), respectively. The “Color stability at extinction maximum, optional reading time” value in data set [7] is “up to 4 hours”. Further, the Precipitation of chromogen entry in data set [8] was “no precipitation of it occurs”. Also, the “Extinction decrease %” value in data set [4] (setting [11]) is 2%. Further, the “Wave length range in nm” value in data set [5] (pH value 6.5) turned out to be 450 nm.

Consider `Cl.Cl.Nc1ccc(-c2ccc(N)c(OCCCC(=O)O)c2)cc1OCCCC(=O)O` [Example 1(d), Gamma, gamma'-(4,4'-diamino-3,3'-biphenyldioxy)dibutyric acid dihydrochloride], for which the “Solubility in water (in words)” value in data set [2] is on record as “very good”. The solubility in data set [2] (setting [9]) is 700 µg/mL; in data set [2] (setting [10]), 70000 µg/mL. For the same compound, the “Color stability at extinction maximum, optional reading time” value in data set [7] is “up to 4 hours”. For the same compound, in data set [8], the Precipitation of chromogen entry is given as “no precipitation of chromogen occurred”. Further, the “Extinction decrease %” value in data set [4] (setting [11]) was found to be 2%. The “Wave length range in nm” value in data set [5] (pH value 6.5) was found to be 450 nm.

For `COc1cc(-c2ccc(N)c(OC)c2)ccc1N` [o-dianisidine], the “Decline of extinction when exposed to light” value in data set [1] (oxidized, exposed to light) was “up to 25 per cent”. In addition, the “Sensitivity of color to light” value in data set [1] (oxidized) is “sensitive to light”. Besides, the figures for the solubility in data set [2] (setting [9]) and in data set [2] (setting [10]) were 10 µg/mL (≈ 40.9 µM) and 110 µg/mL (≈ 450 µM), respectively. The “Light absorption wave length in oxidized state” value in data set [3] is “about 450 nm”. The “Extinction decrease %” value in data set [4] (setting [11]) turned out to be 26%. For the same compound, the “Wave length range in nm” value in data set [5] (pH value 6.5) is on record as 450 nm.
